Measured values: patent US20210115104A1, “AMYLIN ANALOGUES” (Zealand Pharma A/S, priority 2015, published 2021)
*1 amine or outer side, *2 acyl side, *3 side chain or, on linkers, in order; H or OH if unused. Where a SMILES comes first, the peptide text is derived from it. Bridges are numbered along the chain shown (N, C = ends). [ ]: non-standard residue; d: D form. The star is where a group is joined. C20 diacid = O=C(O)CCCCCCCCCCCCCCCCCCC(=O)*; γGlu = O=C(O)[C@H](CCC(=O)[*:2])N[*:1]; Hyp = O=C(O)[C@@H]1C[C@@H](O)CN1; NMeI = CC[C@H](C)[C@H](NC)C(=O)O; Aad = N[C@@H](CCCC(=O)O)C(=O)O; Orn = NCCC[C@H](N)C(=O)O; Sar = CNCC(=O)O

Assays:
[1] = biological target: T1, human amylin receptor 3 (hAMYR3), hCTR2 co-expressed with hRAMP3 (Homo sapiens, UniProt O60896+P30988); assay: hAMYR3 cAMP assay (AlphaScreen) in COS7 cells; assay type: cell-based; conditions: cAMP induction, COS7 cells expressing hAMYR3; Table 1; read-out: hAMYR3 EC50
T1 construct: expressed in transfected cells
T1 sequence (P30988 25-474): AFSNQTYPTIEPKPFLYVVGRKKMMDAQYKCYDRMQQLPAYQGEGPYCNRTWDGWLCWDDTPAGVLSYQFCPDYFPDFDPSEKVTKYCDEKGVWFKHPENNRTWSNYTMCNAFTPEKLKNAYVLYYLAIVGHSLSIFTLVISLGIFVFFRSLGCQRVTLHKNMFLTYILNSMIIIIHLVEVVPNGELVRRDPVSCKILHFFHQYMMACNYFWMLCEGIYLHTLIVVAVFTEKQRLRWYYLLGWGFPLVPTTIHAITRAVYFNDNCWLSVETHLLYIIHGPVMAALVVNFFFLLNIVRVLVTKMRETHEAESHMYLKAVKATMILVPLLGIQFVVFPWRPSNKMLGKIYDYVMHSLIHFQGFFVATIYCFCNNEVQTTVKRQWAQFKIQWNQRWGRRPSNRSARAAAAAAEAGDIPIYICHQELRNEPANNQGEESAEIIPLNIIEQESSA
T1 sequence (O60896 24-148 partner): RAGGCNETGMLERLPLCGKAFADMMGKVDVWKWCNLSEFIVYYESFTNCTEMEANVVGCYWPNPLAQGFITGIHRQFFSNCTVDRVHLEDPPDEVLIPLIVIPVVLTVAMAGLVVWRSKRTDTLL
Outline: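 Stable COS7 clone co-expressing hCTR2 and hRAMP3 was exposed to increasing peptide concentrations in Tyrode buffer (pH 7.4) with 100 µM IBMX and 0.1% casein for 15 min at 37 °C. Lysate cAMP was measured by AlphaScreen; EC50 came from 4-parameter logistic fitting.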

[2] = Assessment of physical stability (Thioflavin T fibrillation); assay type: physicochemical; design: key: FND = fibrillation not detected; FD = fibrillation detected; conditions: 1 mg/ml, 40° C., ThT; for Fibrillation pH 4.0 (Ac): 50 mM acetate buffer pH 4.0, 96 hours; for Fibrillation pH 7.0 (His): 50 mM histidine buffer pH 7.0, 96 hours; for Fibrillation pH 7.0 (Phos.): 50 mM phosphate buffer pH 7.0, 96 hours
Outline: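 1 mg/ml peptide with 40 μM ThT in 50 mM phosphate pH 7.0, 50 mM histidine pH 7.0 or 50 mM acetate pH 4.0, in triplicate. Fluorescence read every 10 min after 300 s agitation over 96 h at 40 °C. Lag-time (h) is the intersection of linear fits to stable and growth phases.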

[3] = biological target: T2, human calcitonin receptor (hCTR2) (Homo sapiens, UniProt P30988); assay: hCTR2 cAMP assay (AlphaScreen) in COS7 cells; assay type: cell-based; conditions: cAMP induction, COS7 cells expressing hCTR2; Table 1; read-out: hCTR2 EC50
T2 construct: expressed in transfected cells
T2 sequence (P30988 25-474): T1 sequence (P30988 25-474)
Outline: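 Stable hCTR2 clone in RAMP-naïve COS7 cells stimulated 15 min at 37 °C with increasing peptide concentrations in Tyrode buffer pH 7.4 containing IBMX and 0.1% casein. cAMP in lysates measured by AlphaScreen; EC50 from 4-parameter logistic fit.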

[4] = Assessment of chemical stability (RP-HPLC normalized purity); assay type: physicochemical; conditions: for Normalized purity after 7 days, 40° C., pH 4: pH 4, 0.2 mg/ml; for Normalized purity after 7 days, 40° C., pH 4 / Normalized purity after 7 days, 40° C., pH 6 / Normalized purity after 7 days, 40° C., pH 7.5 / Normalized purity after 7 days, 40° C., pH 9: Table 1; for Normalized purity after 7 days, 40° C., pH 6: pH 6, 0.2 mg/ml; for Normalized purity after 7 days, 40° C., pH 7.5: pH 7.5, 0.2 mg/ml; for Normalized purity after 7 days, 40° C., pH 9: pH 9, 0.2 mg/ml
Outline: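 Peptides at 0.2 mg/ml in water adjusted to pH 4, 6, 7.5 or 9, incubated at 40° C for 7 days. Main-peak area-% by RP-HPLC (C8 ammonium formate or C18 TFA gradient, UV 220 nm), normalized to T=0 as 100.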

| EC50 [1] | Fibrillation pH 4.0 (Ac) [2] | Fibrillation pH 7.0 (His) [2] | Fibrillation pH 7.0 (Phos.) [2] | EC50 [3] | Normalized purity after 7 days, 40° C., pH 4 [4] | Normalized purity after 7 days, 40° C., pH 6 [4] | Normalized purity after 7 days, 40° C., pH 7.5 [4] | Normalized purity after 7 days, 40° C., pH 9 [4] | Normalized purity pH 4 (Table 5) ([4]; pH 4, repeat of Example 6 for pairs with/without Asn-Asn at 21-22) | Normalized purity pH 6 (Table 5) ([4]; pH 6, repeat of Example 6 for pairs with/without Asn-Asn at 21-22) | Normalized purity pH 7.5 (Table 5) ([4]; pH 7.5, repeat of Example 6 for pairs with/without Asn-Asn at 21-22) | Normalized purity pH 9 (Table 5) ([4]; pH 9, repeat of Example 6 for pairs with/without Asn-Asn at 21-22) | Structure (SMILES) |
| --- | --- | --- | --- | --- | --- | --- | --- | --- | --- | --- | --- | --- | --- |
| 110 pM | FND | FND | FND | 80 pM | A (A = >90%) | B (B = 70-90%) | B (B = 70-90%) | B (B = 70-90%) | – | – | – | – | CC[C@H](C)[C@@H](C(=O)N[C@@H](CC(C)C)C(=O)N[C@@H](CO)C(=O)N[C@@H](CO)C(=O)N[C@H](C(=O)N[C@@H](CCC(=O)O)C(=O)N[C@H](C(=O)NCC(=O)N[C@@H](CO)C(=O)N[C@@H](CCCN)C(=O)N[C@H](C(=O)N1C[C@H](O)C[C@H]1C(N)=O)[C@@H](C)O)C(C)C)[C@@H](C)O)N(C)C(=O)[C@H](C)NC(=O)CN(C)C(=O)[C@H](Cc1ccccc1)NC(=O)[C@H](CO)NC(=O)[C@H](CO)NC(=O)[C@H](CCCNC(=N)N)NC(=O)[C@H](CCC(N)=O)NC(=O)[C@H](CC(C)C)NC(=O)[C@H](Cc1ccccc1)NC(=O)[C@H](Cc1c[nH]cn1)NC(=O)[C@H](C)NC(=O)[C@H](CC(C)C)NC(=O)[C@H](CCCNC(=N)N)NC(=O)[C@H](CCC(=O)O)NC(=O)[C@@H](NC(=O)[C@H](C)NC(=O)[C@@H]1CSSC[C@H](NC(=O)[C@H](CCCNC(=N)N)NC(=O)CC[C@H](NC(=O)CCCCCCCCCCCCCCCCCCC(=O)O)C(=O)O)C(=O)NCC(=O)N[C@@H]([C@@H](C)O)C(=O)N[C@@H](C)C(=O)N[C@@H]([C@@H](C)O)C(=O)N1)[C@@H](C)O [Compound 51, [19CD]-isoGlu-R-C( )-GTAT-C( )-ATERLAHFLQRSSF-Gly(Me)-A-Ile(Me)-LSSTEVGS-Orn-T-Hyp-NH2] ({C20 diacid-γGlu}-RCGTATCATERLAHFLQRSSF[Sar]A[NMeI]LSSTEVGS[Orn]T[Hyp]-NH2; disulfide 2-7) |
| 170 pM | FND | FND | FND | 80 pM | A (A = >90%) | A (A = >90%) | A (A = >90%) | A (A = >90%) | – | – | – | – | CC[C@H](C)[C@@H](C(=O)N[C@@H](CC(C)C)C(=O)N[C@@H](CO)C(=O)N[C@@H](CO)C(=O)N[C@H](C(=O)N[C@@H](CCC(=O)O)C(=O)N[C@H](C(=O)NCC(=O)N[C@@H](CO)C(=O)NCC(=O)N[C@H](C(=O)N1C[C@H](O)C[C@H]1C(N)=O)[C@@H](C)O)C(C)C)[C@@H](C)O)N(C)C(=O)[C@H](C)NC(=O)CN(C)C(=O)[C@H](Cc1ccccc1)NC(=O)[C@H](CO)NC(=O)[C@H](CO)NC(=O)[C@H](CCCNC(=N)N)NC(=O)[C@H](CCC(N)=O)NC(=O)[C@H](CC(C)C)NC(=O)[C@H](Cc1ccccc1)NC(=O)[C@H](Cc1c[nH]cn1)NC(=O)[C@H](C)NC(=O)[C@H](CC(C)C)NC(=O)[C@H](CCCNC(=N)N)NC(=O)[C@H](CC(=O)O)NC(=O)[C@@H](NC(=O)[C@H](C)NC(=O)[C@@H]1CSSC[C@H](NC(=O)[C@H](CCCNC(=N)N)NC(=O)CC[C@H](NC(=O)CCCCCCCCCCCCCCCCCCC(=O)O)C(=O)O)C(=O)N[C@@H](CCC(N)=O)C(=O)N[C@@H]([C@@H](C)O)C(=O)N[C@@H](C)C(=O)N[C@@H]([C@@H](C)O)C(=O)N1)[C@@H](C)O [Compound 91, [19CD]-isoGlu-R-C( )-QTAT-C( )-ATDRLAHFLQRSSF-Gly(Me)-A-Ile(Me)-LSSTEVGSGT-Hyp-NH2] ({C20 diacid-γGlu}-RCQTATCATDRLAHFLQRSSF[Sar]A[NMeI]LSSTEVGSGT[Hyp]-NH2; disulfide 2-7) |
| 200 pM | FND | FND | FND | 160 pM | A (A = >90%) | A (A = >90%) | A (A = >90%) | B (B = 70-90%) | A (A = >90%) | A (A = >90%) | A (A = >90%) | A (A = >90%) | CC[C@H](C)[C@@H](C(=O)N[C@@H](CC(C)C)C(=O)N[C@@H](CO)C(=O)N[C@@H](CO)C(=O)N[C@H](C(=O)N[C@@H](CCC(=O)O)C(=O)N[C@H](C(=O)NCC(=O)N[C@@H](CO)C(=O)N[C@@H](CC(N)=O)C(=O)N[C@H](C(=O)N1C[C@H](O)C[C@H]1C(N)=O)[C@@H](C)O)C(C)C)[C@@H](C)O)N(C)C(=O)[C@H](C)NC(=O)CN(C)C(=O)[C@H](Cc1ccccc1)NC(=O)[C@H](CO)NC(=O)[C@H](CO)NC(=O)[C@H](CCCNC(=N)N)NC(=O)[C@H](CCC(N)=O)NC(=O)[C@H](CC(C)C)NC(=O)[C@H](Cc1ccccc1)NC(=O)[C@H](CCCC(=O)O)NC(=O)[C@H](C)NC(=O)[C@H](CC(C)C)NC(=O)[C@H](CCCNC(=N)N)NC(=O)[C@H](CC(=O)O)NC(=O)[C@@H](NC(=O)[C@H](C)NC(=O)[C@@H]1CSSC[C@H](NC(=O)[C@H](CCCNC(=N)N)NC(=O)CC[C@H](NC(=O)CCCCCCCCCCCCCCCCCCC(=O)O)C(=O)O)C(=O)N[C@@H](CCC(N)=O)C(=O)N[C@@H]([C@@H](C)O)C(=O)N[C@@H](C)C(=O)N[C@@H]([C@@H](C)O)C(=O)N1)[C@@H](C)O [Compound 89, [19CD]-isoGlu-R-C( )-QTAT-C( )-ATDRLA-Aad-FLQRSSF-Gly(Me)-A-Ile(Me)-LSSTEVGSNT-Hyp-NH2] ({C20 diacid-γGlu}-RCQTATCATDRLA[Aad]FLQRSSF[Sar]A[NMeI]LSSTEVGSNT[Hyp]-NH2; disulfide 2-7) |
| 110 pM | FND | FD | FD | 30 pM | A (A = >90%) | B (B = 70-90%) | C (C = <70%) | B (B = 70-90%) | – | – | – | – | CC[C@H](C)[C@@H](C(=O)N[C@@H](CC(C)C)C(=O)N[C@@H](CO)C(=O)N[C@@H](CO)C(=O)N[C@H](C(=O)N[C@@H](CC(=O)O)C(=O)N[C@H](C(=O)NCC(=O)N[C@@H](CO)C(=O)N[C@@H](CC(N)=O)C(=O)N[C@H](C(=O)N1C[C@H](O)C[C@H]1C(N)=O)[C@@H](C)O)C(C)C)[C@@H](C)O)N(C)C(=O)[C@H](C)NC(=O)CN(C)C(=O)[C@H](Cc1ccccc1)NC(=O)[C@H](CO)NC(=O)[C@H](CO)NC(=O)[C@H](CCCNC(=N)N)NC(=O)[C@H](CCC(N)=O)NC(=O)[C@H](CC(C)C)NC(=O)[C@H](Cc1ccccc1)NC(=O)[C@H](Cc1c[nH]cn1)NC(=O)[C@H](C)NC(=O)[C@H](CC(C)C)NC(=O)[C@H](CCCNC(=N)N)NC(=O)[C@H](CC(=O)O)NC(=O)[C@@H](NC(=O)[C@H](C)NC(=O)[C@@H]1CSSC[C@H](NC(=O)[C@H](CCCNC(=N)N)NC(=O)CC[C@H](NC(=O)CCCCCCCCCCCCCCCCCCC(=O)O)C(=O)O)C(=O)N2CCC[C@H]2C(=O)N[C@@H]([C@@H](C)O)C(=O)N[C@@H](C)C(=O)N[C@@H]([C@@H](C)O)C(=O)N1)[C@@H](C)O [Compound 59, [19CD]-isoGlu-R-C( )-PTAT-C( )-ATDRLAHFLQRSSF-Gly(Me)-A-Ile(Me)-LSSTDVGSNT-Hyp-NH2] ({C20 diacid-γGlu}-RCPTATCATDRLAHFLQRSSF[Sar]A[NMeI]LSSTDVGSNT[Hyp]-NH2; disulfide 2-7) |
